Columns and labels:
TR-α = biological target: T1, TR-α (Homo sapiens, UniProt P10827); test: In vitro TR-α activity (in-house protocol); format: cell-based; settings: for fold induction at 0.001 µM: Conc. 1 nM; for fold induction at 0.001 µM / fold induction at 0.01 µM / fold induction at 0.1 µM / fold induction at 1 µM: read-out: TR-α Fold Induction w.r.t T3(100 nm); for fold induction at 0.01 µM: Conc. 10 nM; for fold induction at 0.1 µM: Conc. 100 nM; for fold induction at 1 µM: Conc. 1000 nM
T1 sequence (P10827 1-410 isoform P10827-2): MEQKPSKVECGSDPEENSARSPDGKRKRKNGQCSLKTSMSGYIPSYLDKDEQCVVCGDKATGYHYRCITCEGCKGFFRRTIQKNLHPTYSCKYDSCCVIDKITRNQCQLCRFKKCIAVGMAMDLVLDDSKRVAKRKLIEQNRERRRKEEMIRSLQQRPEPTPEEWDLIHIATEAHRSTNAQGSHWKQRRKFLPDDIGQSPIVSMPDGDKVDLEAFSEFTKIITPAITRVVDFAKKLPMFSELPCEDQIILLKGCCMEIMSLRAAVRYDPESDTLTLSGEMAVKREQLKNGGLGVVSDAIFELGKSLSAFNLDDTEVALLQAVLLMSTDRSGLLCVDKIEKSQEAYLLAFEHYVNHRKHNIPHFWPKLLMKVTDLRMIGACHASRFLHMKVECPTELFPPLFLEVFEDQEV
Method: (§1) In vitro TR-α & TR-β activities were determined as per in-house protocols and the results of representative compounds are provided in tables 1 & 2 below as a proof of the efficacies of the novel class of compounds disclosed above.

TR-β = biological target: T2, TR-β (Homo sapiens, UniProt P10828); test: In vitro TR-β activity (in-house protocol); format: cell-based; settings: for fold induction at 0.001 µM: Conc. 1 nM; for fold induction at 0.001 µM / fold induction at 0.01 µM / fold induction at 0.1 µM / fold induction at 1 µM: read-out: TR-β Fold Induction w.r.t T3(100 nm); for fold induction at 0.01 µM: Conc. 10 nM; for fold induction at 0.1 µM: Conc. 100 nM; for fold induction at 1 µM: Conc. 1000 nM
T2 sequence (P10828 1-461): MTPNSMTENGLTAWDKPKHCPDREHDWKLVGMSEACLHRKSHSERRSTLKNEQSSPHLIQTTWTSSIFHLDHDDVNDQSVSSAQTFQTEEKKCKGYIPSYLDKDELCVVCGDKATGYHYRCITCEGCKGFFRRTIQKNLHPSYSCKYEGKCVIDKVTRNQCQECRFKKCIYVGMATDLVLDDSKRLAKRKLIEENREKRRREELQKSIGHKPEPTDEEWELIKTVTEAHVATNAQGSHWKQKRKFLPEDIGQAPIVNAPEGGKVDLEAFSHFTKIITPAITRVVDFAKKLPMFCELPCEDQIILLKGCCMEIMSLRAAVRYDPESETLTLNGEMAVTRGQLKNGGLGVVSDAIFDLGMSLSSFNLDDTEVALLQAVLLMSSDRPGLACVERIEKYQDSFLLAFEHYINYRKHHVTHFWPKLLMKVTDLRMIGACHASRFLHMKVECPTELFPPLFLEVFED
Method: as §1

| fold induction at 0.001 µM (TR-α) | fold induction at 0.01 µM (TR-α) | fold induction at 0.1 µM (TR-α) | fold induction at 1 µM (TR-α) | fold induction at 0.001 µM (TR-β) | fold induction at 0.01 µM (TR-β) | fold induction at 0.1 µM (TR-β) | fold induction at 1 µM (TR-β) | EC50 (TR-α) | EC50 (TR-β) | SMILES |
| --- | --- | --- | --- | --- | --- | --- | --- | --- | --- | --- |
| 9.45 | 13.1 | 34.5 | 74.3 | 8.98 | 14.8 | 46 | 98.6 | – | – | CC(C)(ON=Cc1cc(Br)c(Oc2ccc(O)c(-c3ccccc3)c2)c(Br)c1)C(=O)O [Example 20, 2-(((3,5-dibromo-4-((6-hydroxy-[1,1′-biphenyl]-3-yl)oxy)benzylidene)amino)oxy)-2-methyl propanoic acid] |
| 12.4 | 29.5 | 75 | 76.6 | 16.3 | 45.4 | 85.2 | 89 | – | – | CC(ON=Cc1cc(Cl)c(Oc2ccc(O)c(C(C)C)c2)c(Cl)c1)C(=O)O (centres unmarked) [Example 8, 2-(((3,5-dichloro-4-(4-hydroxy-3-isopropylphenoxy)benzylidene)amino)oxy)propanoic acid] |
| 18.5 | 52.1 | 102 | 121 | 16.6 | 48.9 | 105 | 86.1 | – | – | CC(ON=Cc1cc(Br)c(Oc2ccc(O)c(C(C)(C)C)c2)c(Br)c1)C(=O)O (centres unmarked) [Example 24, 2-(((3,5-dibromo-4-(3-(tert-butyl)-4-hydroxyphenoxy)benzylidene)amino)oxy)propanoic acid] |
| 11.8 | 25.7 | 73.5 | 99 | 7.72 | 20.6 | 52.6 | 53.4 | – | – | CC(C)c1cc(Oc2c(Cl)cc(C=NOCC(=O)O)cc2Cl)ccc1O [Example 1, 2-(((3,5-dichloro-4-(4-hydroxy-3-isopropylphenoxy)benzylidene)amino)oxy)acetic acid] |
| 12.1 | 27.2 | 48.6 | 85.1 | 9.09 | 24.9 | 44.9 | 73.9 | – | – | CC(C)(ON=Cc1cc(Br)c(Oc2ccc(O)c(Cc3ccccc3)c2)c(Br)c1)C(=O)O [Example 22, 2-(((4-(3-benzyl-4-hydroxyphenoxy)-3,5-dibromobenzylidene)amino)oxy)-2-methylpropanoic acid] |
| 12.6 | 12.8 | 17.7 | 46.1 | 6.51 | 6.74 | 14 | 58.1 | – | – | O=C(O)CON=Cc1cc(Br)c(Oc2ccc(O)c(S(=O)(=O)N3CCCC3)c2)c(Br)c1 [Example 41, 2-(((3,5-dibromo-4-(4-hydroxy-3-(pyrrolidin-1-ylsulfonyl)phenoxy)benzylidene)amino)oxy)acetic acid] |
| 29.6 | 63.9 | 76.8 | 56.9 | 23.1 | 73.4 | 86.7 | 94.6 | – | – | CCC(ON=Cc1cc(Br)c(Oc2ccc(O)c(C(C)C)c2)c(Br)c1)C(=O)O (centres unmarked) [Example 13, 2-(((3,5-dibromo-4-(4-hydroxy-3-isopropylphenoxy)benzylidene)amino)oxy)butanoic acid] |
| 11.6 | 39.8 | 60.6 | 64.9 | 15.9 | 37.1 | 84 | 74.6 | – | – | CCC(C)c1cc(Oc2c(Br)cc(C=NOCC(=O)O)cc2Br)ccc1O (centres unmarked) [Example 6, 2-(((3,5-dibromo-4-(3-(sec-butyl)-4-hydroxyphenoxy)benzylidene)amino)oxy)acetic acid] |
| 10.7 | 9.07 | 10.1 | 16.7 | 10.1 | 9.01 | 10.9 | 36.5 | – | – | CC(ON=Cc1cc(Br)c(Oc2ccc(O)c(S(=O)(=O)N[C@@H]3C[C@H]4CC[C@@H]3C4)c2)c(Br)c1)C(=O)O (stereo partly drawn) [Example 40, 2-(((4-(3-(N-((1R,2R,4S)-bicyclo[2.2.1]heptan-2-yl)sulfamoyl)-4-hydroxyphenoxy)-3,5-dibromobenzylidene)amino)oxy)propanoic acid] |
| 10.2 | 26.7 | 66.7 | 108 | 14 | 34.5 | 79.4 | 115 | – | – | CCC(C)c1cc(Oc2c(Cl)cc(C=NOCC(=O)O)cc2Cl)ccc1O (centres unmarked) [Example 2, 2-(((4-(3-(sec-butyl)-4-hydroxyphenoxy)-3,5-dichlorobenzylidene)amino)oxy)acetic acid] |
| 34.4 | 80.8 | 64.2 | 109 | 20.2 | 69.7 | 86.2 | 90.8 | – | – | CCC(ON=Cc1cc(Br)c(Oc2ccc(O)c(C(C)CC)c2)c(Br)c1)C(=O)O (centres unmarked) [Example 19, 2-(((3,5-dibromo-4-(3-(sec-butyl)-4-hydroxyphenoxy)benzylidene)amino)oxy)butanoic acid] |
| 17.6 | 21.2 | 29.9 | 64.2 | 10.6 | 12.1 | 33.5 | 68.5 | – | – | O=C(O)CON=Cc1cc(Br)c(Oc2ccc(O)c(C(O)c3ccc(Cl)cc3)c2)c(Br)c1 (centres unmarked) [Example 29, 2-(((3,5-dibromo-4-(3-((4-chlorophenyl)(hydroxy)methyl)-4-hydroxyphenoxy)benzylidene)amino)oxy)acetic acid] |
| 10.1 | 16.4 | 25.3 | 76.2 | 11.8 | 13.6 | 25 | 82.2 | – | – | CCN(CC)S(=O)(=O)c1cc(Oc2c(Br)cc(C=NOC(C)C(=O)O)cc2Br)ccc1O (centres unmarked) [Example 38, 2-(((3,5-dibromo-4-(3-(N,N-diethylsulfamoyl)-4-hydroxyphenoxy)benzylidene)amino)oxy)propanoic acid] |
| 18.7 | 32.2 | 52.1 | 74 | 14 | 30.1 | 72.5 | 62.1 | – | – | O=C(O)CON=Cc1cc(Br)c(Oc2ccc(O)c(C(=O)c3cccc(Cl)c3)c2)c(Br)c1 [Example 33, 2-(((3,5-dibromo-4-(3-(3-chlorobenzoyl)-4-hydroxyphenoxy)benzylidene)amino)oxy)acetic acid] |
| – | – | – | – | – | – | – | – | 143 nM | 166 nM | CC(ON=Cc1cc(Br)c(Oc2ccc(O)c(C(=O)c3cccc(Cl)c3)c2)c(Br)c1)C(=O)O (centres unmarked) [Example 30, 2-(((3,5-dibromo-4-(3-(3-chlorobenzoyl)-4-hydroxyphenoxy)benzylidene)amino)oxy)propanoic acid] |
| 21.6 | 38.5 | 66.2 | 109 | 21.2 | 31.3 | 81.5 | 85.6 | – | – | CCC(ON=Cc1cc(Br)c(Oc2ccc(O)c(Cc3ccccc3)c2)c(Br)c1)C(=O)O (centres unmarked) [Example 17, 2-(((4-(3-benzyl-4-hydroxyphenoxy)-3,5-dibromobenzylidene)amino)oxy)butanoic acid] |

From patent US20110301200A1, “THYROID RECEPTOR LIGANDS” (CADILA HEALTHCARE LIMITED, priority 2008, published 2011)
